Measurements as given in US11970461B1, “1-hexyl-5-(4-methoxyphenyl)-2,4-diphenyl-1H-imidazole as an antimicrobial compound” (KING FAISAL UNIVERSITY, priority 2023, dated 2024).

What was measured:
Escherichia coli = assay: antimicrobial testing by agar dilution, Escherichia coli; type: cell-based; conditions: after 10, 20, 40 and 60 minutes at all dilutions 1:100, 1:200, 1:400, 1:800
Experimental: (§1) The antimicrobial properties of the 1-hexyl-5-(4-methoxyphenyl)-2,4-diphenyl-1H-imidazole was studied by the method of agar dilution. Test solutions of each compound was prepared in concentration of 1% using dimethylformamide as a solvent then they are diluted in physiological solution to obtain the final experimental dilutions 1:100, 1:200, 1:400, 1:800. The effect of these substances are compared with furacillin in a controllable study. The testing microbes used were gram positive bacteria Staphylococcus aureus, gram negative bacteria Escherichia coli, Pseudomonas aeruginosa and Candida albicans fungi were taken. The experiments used for this survey were meat-pentonlu agar (EPA) for cultivation of bacteria and Saburo environment for fungi. Each experiment used 1 ml of test solution on each plate 500 min. Add 2 drops of emulsified with microbes feel. All experimental samples were taken from the agar after 10, 20, 40, 60 minutes in the environment on the basis of Patrk planted. Bacteria were cultivated at a temperature of 37° C. for 1 day and the mushroom was kept in a thermostat for […] at a temperature of 28° C. Then the results were checked.

Staphylococcus aureus = assay: antimicrobial testing by agar dilution, Staphylococcus aureus; type: cell-based; conditions: after 10, 20, 40 and 60 minutes at all dilutions 1:100, 1:200, 1:400, 1:800
Experimental: as §1

Pseudomonas aeruginosa = assay: antimicrobial testing by agar dilution, Pseudomonas aeruginosa; type: cell-based; conditions: after 10, 20, 40 and 60 minutes at all dilutions 1:100, 1:200, 1:400, 1:800
Experimental: as §1

Candida albicans = assay: antimicrobial testing by agar dilution, Candida albicans; type: cell-based; conditions: after 10, 20, 40 and 60 minutes at all dilutions 1:100, 1:200, 1:400, 1:800
Experimental: as §1

melting point: 161 to 162 °C
Structure (SMILES): CCCCCCn1c(-c2ccccc2)nc(-c2ccccc2)c1-c1ccc(OC)cc1 [1-hexyl-5-(4-methoxyphenyl)-2,4-diphenyl-1H-imidazole]
inhibition activity, Escherichia coli (Escherichia coli): higher inhibition activity | inhibition activity, Staphylococcus aureus (Staphylococcus aureus): higher inhibition activity | inhibition activity, Pseudomonas aeruginosa (Pseudomonas aeruginosa): higher inhibition activity | inhibition activity, Candida albicans (Candida albicans): higher inhibition activity
